Reference: ChEMBL document CHEMBL2016457, “Discovery of potent and orally bioavailable 17β-hydroxysteroid dehydrogenase type 3 inhibitors” (Bioorg Med Chem, 2012)
The source made the active and inactive calls. No rule for the calls is given here.

Tests used:
[1] = target: T1, Glucocorticoid receptor (Homo sapiens) (UniProt P04150); assay: Antagonist activity at human GR receptor expressed in human HeLa cells assessed as inhibition of DHT-induced response after 40 hrs by luciferase/beta-galactosidase-based reporter gene assay; format: functional, cell-based
T1 sequence (whole entry): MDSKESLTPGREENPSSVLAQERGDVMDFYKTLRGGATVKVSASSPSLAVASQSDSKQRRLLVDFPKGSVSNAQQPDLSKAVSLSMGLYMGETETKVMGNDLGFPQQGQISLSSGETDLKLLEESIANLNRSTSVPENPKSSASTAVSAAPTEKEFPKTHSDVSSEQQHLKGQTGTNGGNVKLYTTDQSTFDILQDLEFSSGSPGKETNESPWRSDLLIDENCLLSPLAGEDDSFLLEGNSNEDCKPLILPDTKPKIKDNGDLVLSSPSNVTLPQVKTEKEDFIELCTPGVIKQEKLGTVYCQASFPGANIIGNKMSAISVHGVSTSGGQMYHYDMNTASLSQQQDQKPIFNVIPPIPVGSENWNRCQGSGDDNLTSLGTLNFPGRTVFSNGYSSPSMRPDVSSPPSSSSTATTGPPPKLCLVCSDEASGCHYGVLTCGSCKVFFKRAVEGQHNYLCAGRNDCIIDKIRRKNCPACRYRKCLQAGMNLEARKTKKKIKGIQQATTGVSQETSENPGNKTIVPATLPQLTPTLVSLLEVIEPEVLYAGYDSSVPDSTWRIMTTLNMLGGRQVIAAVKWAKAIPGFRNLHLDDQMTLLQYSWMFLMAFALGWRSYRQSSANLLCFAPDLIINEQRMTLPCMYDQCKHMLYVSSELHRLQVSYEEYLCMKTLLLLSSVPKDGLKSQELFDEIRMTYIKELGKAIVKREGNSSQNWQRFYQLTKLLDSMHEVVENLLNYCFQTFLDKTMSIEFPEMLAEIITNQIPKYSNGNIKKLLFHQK

[2] = target: T2, 17-beta-hydroxysteroid dehydrogenase type 2 (Homo sapiens) (UniProt P37059); assay: Inhibition of human recombinant 17-beta-HSD2 expressed in human HeLa cells using estradiol as substrate preincubated for 30 mins prior substrate addition measured after 120 mins by spectrophotometry; format: cell-based
T2 sequence (whole entry): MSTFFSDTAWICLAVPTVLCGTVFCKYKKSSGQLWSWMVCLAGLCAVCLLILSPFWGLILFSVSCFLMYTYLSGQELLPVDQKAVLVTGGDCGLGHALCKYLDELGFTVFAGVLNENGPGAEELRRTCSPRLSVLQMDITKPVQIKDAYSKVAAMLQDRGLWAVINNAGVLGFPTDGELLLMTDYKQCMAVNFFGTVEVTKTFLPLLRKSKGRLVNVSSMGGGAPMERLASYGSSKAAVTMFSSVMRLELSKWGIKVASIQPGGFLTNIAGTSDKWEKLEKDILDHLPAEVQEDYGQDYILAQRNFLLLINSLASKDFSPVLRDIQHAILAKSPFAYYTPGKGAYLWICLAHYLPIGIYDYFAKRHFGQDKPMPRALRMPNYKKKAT

[3] = target: T3, Estrogen receptor (Homo sapiens) (UniProt P03372); assay: Antagonist activity at human ERalpha receptor expressed in human HeLa cells assessed as inhibition of DHT-induced response after 40 hrs by luciferase/beta-galactosidase-based reporter gene assay; format: functional, cell-based
T3 sequence (whole entry): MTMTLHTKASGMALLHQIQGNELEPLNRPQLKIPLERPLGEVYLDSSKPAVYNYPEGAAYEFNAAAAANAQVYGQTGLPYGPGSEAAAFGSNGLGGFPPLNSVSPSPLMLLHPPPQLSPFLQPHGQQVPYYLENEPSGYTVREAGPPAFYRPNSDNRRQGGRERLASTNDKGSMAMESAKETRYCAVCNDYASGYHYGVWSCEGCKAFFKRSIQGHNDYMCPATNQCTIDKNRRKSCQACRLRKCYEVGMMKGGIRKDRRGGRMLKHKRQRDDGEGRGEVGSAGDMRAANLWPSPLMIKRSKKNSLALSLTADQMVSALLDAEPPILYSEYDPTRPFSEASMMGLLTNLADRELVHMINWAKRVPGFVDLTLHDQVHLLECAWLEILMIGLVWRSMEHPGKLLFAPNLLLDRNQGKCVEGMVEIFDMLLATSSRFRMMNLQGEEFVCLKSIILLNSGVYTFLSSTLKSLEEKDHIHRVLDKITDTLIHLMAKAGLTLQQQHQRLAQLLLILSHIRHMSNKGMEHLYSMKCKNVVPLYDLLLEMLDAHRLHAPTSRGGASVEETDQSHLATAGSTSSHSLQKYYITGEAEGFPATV

[4] = target: T3, Estrogen receptor (Homo sapiens); assay: Agonist activity at human Estrogen receptor ERalpha expressed in human HeLa cells assessed as DHT-induced response after 40 hrs by luciferase/beta-galactosidase-based reporter gene assay; format: functional, cell-based
[5] = target: T1, Glucocorticoid receptor (Homo sapiens); assay: Agonist activity at human Glucocorticoid receptor expressed in human HeLa cells assessed as DHT-induced response after 40 hrs by luciferase/beta-galactosidase-based reporter gene assay; format: functional, cell-based
[6] = target: T4, Androgen receptor (Homo sapiens) (UniProt P10275); assay: Antagonist activity at human androgen receptor expressed in human HeLa cells assessed as inhibition of DHT-induced response after 40 hrs by luciferase/beta-galactosidase-based reporter gene assay; format: functional, cell-based
T4 sequence (whole entry): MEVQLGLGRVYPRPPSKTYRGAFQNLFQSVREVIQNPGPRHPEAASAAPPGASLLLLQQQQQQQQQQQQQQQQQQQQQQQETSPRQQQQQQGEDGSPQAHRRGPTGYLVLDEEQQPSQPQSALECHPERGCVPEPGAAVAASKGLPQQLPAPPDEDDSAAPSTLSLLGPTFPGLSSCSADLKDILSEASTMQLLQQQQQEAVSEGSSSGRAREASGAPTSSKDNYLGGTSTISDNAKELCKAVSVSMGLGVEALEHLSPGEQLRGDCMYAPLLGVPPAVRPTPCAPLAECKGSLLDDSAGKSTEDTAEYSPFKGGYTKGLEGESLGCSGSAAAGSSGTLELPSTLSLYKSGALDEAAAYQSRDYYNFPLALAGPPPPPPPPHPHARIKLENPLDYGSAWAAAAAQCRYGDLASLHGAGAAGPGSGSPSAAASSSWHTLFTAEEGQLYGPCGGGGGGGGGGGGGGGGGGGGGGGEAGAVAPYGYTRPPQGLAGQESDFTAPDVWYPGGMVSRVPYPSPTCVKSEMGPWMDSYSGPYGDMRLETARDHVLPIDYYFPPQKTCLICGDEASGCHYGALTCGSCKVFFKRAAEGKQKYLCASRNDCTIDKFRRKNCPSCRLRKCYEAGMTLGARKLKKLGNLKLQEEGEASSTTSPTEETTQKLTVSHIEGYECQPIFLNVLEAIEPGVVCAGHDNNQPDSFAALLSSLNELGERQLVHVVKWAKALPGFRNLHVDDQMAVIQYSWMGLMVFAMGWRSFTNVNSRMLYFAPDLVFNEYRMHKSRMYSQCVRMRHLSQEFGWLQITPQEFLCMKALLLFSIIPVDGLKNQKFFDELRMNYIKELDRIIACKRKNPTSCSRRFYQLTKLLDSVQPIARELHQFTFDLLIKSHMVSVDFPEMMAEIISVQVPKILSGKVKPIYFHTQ

[7] = target: T5, 17-beta-hydroxysteroid dehydrogenase type 1 (Homo sapiens) (UniProt P14061); assay: Inhibition of human recombinant 17-beta-HSD1 expressed in human HeLa cells using estrone as substrate preincubated for 30 mins prior substrate addition measured after 120 mins by spectrophotometry; format: cell-based
T5 sequence (whole entry): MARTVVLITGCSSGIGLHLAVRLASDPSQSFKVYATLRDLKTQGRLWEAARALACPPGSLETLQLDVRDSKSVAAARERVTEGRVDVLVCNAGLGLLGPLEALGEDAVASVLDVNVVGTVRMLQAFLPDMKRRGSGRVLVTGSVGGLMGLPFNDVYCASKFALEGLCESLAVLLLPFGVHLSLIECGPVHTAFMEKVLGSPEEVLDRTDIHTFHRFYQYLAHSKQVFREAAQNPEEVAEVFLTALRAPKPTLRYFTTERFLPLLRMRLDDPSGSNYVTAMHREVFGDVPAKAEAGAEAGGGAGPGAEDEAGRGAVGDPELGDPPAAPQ

[8] = target: T6, 17-beta-hydroxysteroid dehydrogenase type 3 (Homo sapiens, UniProt P37058)
T6 sequence (P37058 whole entry): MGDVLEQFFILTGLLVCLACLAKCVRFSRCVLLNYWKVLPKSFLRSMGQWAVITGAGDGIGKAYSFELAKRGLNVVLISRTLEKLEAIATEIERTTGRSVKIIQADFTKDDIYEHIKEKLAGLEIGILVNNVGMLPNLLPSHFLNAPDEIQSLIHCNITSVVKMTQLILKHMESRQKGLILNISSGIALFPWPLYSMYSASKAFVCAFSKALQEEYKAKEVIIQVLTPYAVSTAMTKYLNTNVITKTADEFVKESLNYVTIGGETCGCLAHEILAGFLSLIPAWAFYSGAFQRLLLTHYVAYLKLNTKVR
Description: Inhibition of human recombinant 17-beta-HSD3 expressed in human HeLa cells using androstenedione as substrate preincubated for 30 mins prior substrate addition measured after 120 mins by spectrophotometry

[9] = target: T4, Androgen receptor (Homo sapiens); assay: Agonist activity at human androgen receptor expressed in human HeLa cells assessed as DHT-induced response after 40 hrs by luciferase/beta-galactosidase-based reporter gene assay; format: functional, cell-based

Row | SMILES | Activity [1] | inhibition [2] | Activity [3] | Activity [4] | Activity [5] | Activity [6] | inhibition [7] | IC50 [8] | Activity [9]
1 | O=C1O/C(=C\c2ccc(O)c(Br)c2)C(=O)N1c1cccnc1 | inactive | inactive | inactive | inactive | inactive | inactive | inactive | 22 nM | inactive
2 | COc1ccc(CN2C(=O)/C(=C/c3ccc(O)c(Br)c3)SC2=S)cc1 | inactive | inactive | inactive | inactive | inactive | inactive | inactive | 90 nM | inactive
3 | COC(=O)c1ccc(N2C(=O)O/C(=C\c3ccc(O)c(Br)c3)C2=O)cc1 | inactive | inactive | inactive | inactive | inactive | inactive | inactive | 24 nM | inactive
4 | O=C1O/C(=C\c2ccc(O)c(Br)c2)C(=O)N1c1ccc(Cl)nc1 | inactive | inactive | inactive | inactive | inactive | inactive | inactive | 20 nM | inactive
5 | COc1cccc(N2C(=O)/C(=C/c3ccc(O)c(Br)c3)OC2=S)c1 | inactive | inactive | inactive | inactive | inactive | inactive | inactive | 7 nM | inactive
6 | C=CCN1C(=O)/C(=C/c2ccc(O)c(Br)c2)SC1=S | inactive | inactive | inactive | inactive | inactive | inactive | inactive | 120 nM | inactive
7 | Cc1ccc(N2C(=O)/C(=C/c3ccc(O)c(Br)c3)OC2=S)cc1 | inactive | inactive | inactive | inactive | inactive | inactive | inactive | 2 nM | inactive
8 | C#CCN1C(=O)/C(=C/c2ccc(O)c(Br)c2)SC1=S | inactive | inactive | inactive | inactive | inactive | inactive | inactive | 300 nM | inactive
9 | COc1ccc(N2C(=O)/C(=C/c3cc(F)c(O)c(F)c3)OC2=S)cc1 | inactive | inactive | inactive | inactive | inactive | inactive | inactive | 5 nM | inactive
10 | O=C1O/C(=C\c2ccc(O)c(Br)c2)C(=O)N1c1ccccn1 | inactive | inactive | inactive | inactive | inactive | inactive | inactive | 74 nM | inactive
11 | COc1ccc(N2C(=O)/C(=C/c3ccc(O)cc3Cl)OC2=S)cc1 | inactive | inactive | inactive | inactive | inactive | inactive | inactive | 5 nM | inactive
12 | CN1C(=O)/C(=C/c2ccc(O)c(Br)c2)SC1=S | inactive | inactive | inactive | inactive | inactive | inactive | inactive | 890 nM | inactive
